Results published in US12723063B2, “GIPR-agonist compounds” (Eli Lilly and Company, priority 2019, dated 2026).
*1 amine or outer side, *2 acyl side, *3 side chain or, on linkers, in order; H or OH if unused. Where a SMILES comes first, the peptide text is derived from it. Side-chain parts run from the residue outwards. [ ]: non-standard residue; d: D form. The star is where a group is joined. C20 diacid = O=C(O)CCCCCCCCCCCCCCCCCCC(=O)*; C18 diacid = O=C(O)CCCCCCCCCCCCCCCCC(=O)*; αMePhe(2-F) = C[C@](N)(Cc1ccccc1F)C(=O)O; γGlu = O=C(O)[C@H](CCC(=O)[*:2])N[*:1]; 4Pal = N[C@@H](Cc1ccncc1)C(=O)O; αMeL = CC(C)C[C@](C)(N)C(=O)O; Orn = NCCC[C@H](N)C(=O)O; AEEA = NCCOCCOCC(=O)O; Aib = CC(C)(N)C(=O)O

Molecular target: T1, human GLP-1R (Homo sapiens, UniProt P43220)
T1 construct: expressed in transfected cells; crude membranes
Assay: [125I]-GLP-1 binding, SPA with WGA beads, 0.1% bacitracin
Settings: geometric mean, read-out: hGLP1R Ki
Outline: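 Binding buffer was 25 mM HEPES pH 7.4 with 2.5 mM CaCl2, 1 mM MgCl2, 0.1% (w/v) bacitracin, 0.003% Tween-20 and EDTA-free protease inhibitors. Four-parameter regression gave IC50, converted to Ki (geometric mean, SEM, n independent days).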

T1 sequence (P43220 24-463): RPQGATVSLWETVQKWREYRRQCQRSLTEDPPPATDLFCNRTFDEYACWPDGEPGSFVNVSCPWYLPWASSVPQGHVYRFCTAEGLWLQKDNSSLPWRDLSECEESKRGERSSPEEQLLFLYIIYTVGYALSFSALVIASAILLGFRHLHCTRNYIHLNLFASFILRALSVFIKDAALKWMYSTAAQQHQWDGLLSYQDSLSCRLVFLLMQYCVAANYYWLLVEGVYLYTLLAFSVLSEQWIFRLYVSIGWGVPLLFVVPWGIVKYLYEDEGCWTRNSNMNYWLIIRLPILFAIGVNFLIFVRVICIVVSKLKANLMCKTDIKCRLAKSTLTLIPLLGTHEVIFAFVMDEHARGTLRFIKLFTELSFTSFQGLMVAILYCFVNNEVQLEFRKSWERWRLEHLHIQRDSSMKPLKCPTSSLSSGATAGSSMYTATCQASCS

SMILES: CC[C@H](C)[C@H](NC(=O)[C@H](CCCCN)NC(=O)[C@H](CC(=O)O)NC(=O)[C@H](CC(C)C)NC(=O)[C@](C)(CC(C)C)NC(=O)[C@@H](NC(=O)[C@H](CO)NC(=O)[C@H](Cc1ccc(O)cc1)NC(=O)[C@H](CC(=O)O)NC(=O)[C@H](CO)NC(=O)[C@@H](NC(=O)[C@H](Cc1ccccc1)NC(=O)[C@@H](NC(=O)CNC(=O)[C@H](CCC(=O)O)NC(=O)C(C)(C)NC(=O)[C@@H](N)Cc1ccc(O)cc1)[C@@H](C)O)[C@@H](C)CC)[C@@H](C)CC)C(=O)N[C@@H](Cc1c[nH]cn1)C(=O)N[C@@H](CCC(N)=O)C(=O)NC(C)(C)C(=O)N[C@@H](CC(=O)O)C(=O)N[C@@H](Cc1ccccc1)C(=O)N[C@H](C(=O)N[C@@H](CCC(=O)O)C(=O)N[C@@H](Cc1ccc(O)cc1)C(=O)N[C@@H](CCCCNC(=O)COCCOCCNC(=O)COCCOCCNC(=O)CC[C@H](NC(=O)CCCCCCCCCCCCCCCCCCC(=O)O)C(=O)O)C(=O)N[C@@H](CC(C)C)C(=O)N[C@@H](CCC(=O)O)C(=O)N[C@@H](C)C(=O)NCC(=O)N1CCC[C@H]1C(=O)N[C@@H](CO)C(=O)N[C@@H](CO)C(=O)NCC(=O)N[C@@H](C)C(=O)N1CCC[C@H]1C(=O)N1CCC[C@H]1C(=O)N1CCC[C@H]1C(=O)N[C@@H](CO)C(N)=O)C(C)C [Example 117] (H-Y[Aib]EGTFISDYSI[αMeL]LDKIHQ[Aib]DFVEYK([AEEA-AEEA-γGlu-C20 diacid])LEAGPSSGAPPPS-NH2)
- Ki: 591 nM

SMILES: CC[C@H](C)[C@H](NC(=O)[C@H](Cc1ccccc1)NC(=O)[C@@H](NC(=O)CNC(=O)[C@H](CCC(=O)O)NC(=O)C(C)(C)NC(=O)[C@@H](N)Cc1ccc(O)cc1)[C@@H](C)O)C(=O)N[C@@H](CO)C(=O)N[C@@H](CC(=O)O)C(=O)N[C@@H](Cc1ccc(O)cc1)C(=O)N[C@@H](CO)C(=O)N[C@H](C(=O)N[C@@](C)(CC(C)C)C(=O)N[C@@H](CC(C)C)C(=O)N[C@@H](CC(=O)O)C(=O)N[C@@H](CCCN)C(=O)N[C@@H](CCCCNC(=O)COCCOCCNC(=O)COCCOCCNC(=O)CC[C@H](NC(=O)CCCCCCCCCCCCCCCCCCC(=O)O)C(=O)O)C(=O)N[C@@H](Cc1c[nH]cn1)C(=O)N[C@@H](CCC(N)=O)C(=O)NC(C)(C)C(=O)N[C@@H](CC(=O)O)C(=O)N[C@@H](Cc1ccccc1)C(=O)N[C@H](C(=O)N[C@@H](CCC(=O)O)C(=O)N[C@@H](Cc1ccncc1)C(=O)N[C@@H](CC(C)C)C(=O)N[C@@H](CC(C)C)C(=O)N[C@@H](CCC(=O)O)C(=O)NCC(=O)NCC(=O)N1CCC[C@H]1C(=O)N[C@@H](CO)C(=O)N[C@@H](CO)C(=O)NCC(=O)N[C@@H](C)C(=O)N1CCC[C@H]1C(=O)N1CCC[C@H]1C(=O)N1CCC[C@H]1C(=O)N[C@@H](CO)C(N)=O)C(C)C)[C@@H](C)CC [Example 82] (H-Y[Aib]EGTFISDYSI[αMeL]LD[Orn]K([AEEA-AEEA-γGlu-C20 diacid])HQ[Aib]DFVE[4Pal]LLEGGPSSGAPPPS-NH2)
- Ki: 388 nM

SMILES: CC[C@H](C)[C@H](NC(=O)[C@H](CO)NC(=O)[C@H](Cc1ccc(O)cc1)NC(=O)[C@H](CC(=O)O)NC(=O)[C@H](CO)NC(=O)[C@@H](NC(=O)[C@](C)(Cc1ccccc1F)NC(=O)[C@@H](NC(=O)CNC(=O)[C@H](CCC(=O)O)NC(=O)[C@H](C)NC(=O)[C@@H](Cc1ccc(O)cc1)NC(C)=O)[C@@H](C)O)[C@@H](C)CC)C(=O)N[C@@H](C)C(=O)N[C@@H](CC(C)C)C(=O)N[C@@H](CC(=O)O)C(=O)N[C@@H](CCCCN)C(=O)N[C@@H](CCCCNC(=O)COCCOCCNC(=O)COCCOCCNC(=O)CC[C@H](NC(=O)CCCCCCCCCCCCCCCCC(=O)O)C(=O)O)C(=O)N[C@@H](Cc1c[nH]cn1)C(=O)N[C@@H](CCC(N)=O)C(=O)NC(C)(C)C(=O)N[C@@H](CCC(=O)O)C(=O)N[C@@H](Cc1ccccc1)C(=O)N[C@H](C(=O)N[C@@H](CC(N)=O)C(=O)N[C@@H](Cc1ccc(O)cc1)C(=O)N[C@@H](CC(C)C)C(=O)N[C@@H](CC(C)C)C(=O)N[C@@H](C)C(=O)NCC(=O)NCC(=O)N1CCC[C@H]1C(=O)N[C@@H](CO)C(=O)N[C@@H](CO)C(=O)NCC(=O)N[C@@H](C)C(=O)N1CCC[C@H]1C(=O)N1CCC[C@H]1C(=O)N1CCC[C@H]1C(=O)N[C@@H](CO)C(N)=O)C(C)C [Example 30] (Ac-[dY]AEGT[αMePhe(2-F)]ISDYSIALDKK([AEEA-AEEA-γGlu-C18 diacid])HQ[Aib]EFVNYLLAGGPSSGAPPPS-NH2)
- Ki: 26.5 nM

SMILES: CC[C@H](C)[C@H](NC(=O)[C@H](CCCN)NC(=O)[C@H](CC(=O)O)NC(=O)[C@H](CC(C)C)NC(=O)[C@](C)(CC(C)C)NC(=O)[C@@H](NC(=O)[C@H](CO)NC(=O)[C@H](Cc1ccc(O)cc1)NC(=O)[C@H](CC(=O)O)NC(=O)[C@H](CO)NC(=O)[C@@H](NC(=O)[C@H](Cc1ccccc1)NC(=O)[C@@H](NC(=O)CNC(=O)[C@H](CCC(=O)O)NC(=O)C(C)(C)NC(=O)[C@@H](N)Cc1ccc(O)cc1)[C@@H](C)O)[C@@H](C)CC)[C@@H](C)CC)C(=O)N[C@@H](Cc1c[nH]cn1)C(=O)N[C@@H](CCC(N)=O)C(=O)NC(C)(C)C(=O)N[C@@H](CCC(=O)O)C(=O)N[C@@H](Cc1ccccc1)C(=O)N[C@H](C(=O)N[C@@H](CCC(=O)O)C(=O)N[C@@H](Cc1ccc(O)cc1)C(=O)N[C@@H](CCCCNC(=O)COCCOCCNC(=O)COCCOCCNC(=O)CC[C@H](NC(=O)CCCCCCCCCCCCCCCCCCC(=O)O)C(=O)O)C(=O)N[C@@H](CC(C)C)C(=O)N[C@@H](CCC(=O)O)C(=O)N[C@@H](C)C(=O)NCC(=O)N1CCC[C@H]1C(=O)N[C@@H](CO)C(=O)N[C@@H](CO)C(=O)NCC(=O)N[C@@H](C)C(=O)N1CCC[C@H]1C(=O)N1CCC[C@H]1C(=O)N1CCC[C@H]1C(=O)N[C@@H](CO)C(N)=O)C(C)C [Example 104] (H-Y[Aib]EGTFISDYSI[αMeL]LD[Orn]IHQ[Aib]EFVEYK([AEEA-AEEA-γGlu-C20 diacid])LEAGPSSGAPPPS-NH2)
- Ki: > 910 nM

SMILES: CC[C@H](C)[C@H](NC(=O)[C@H](Cc1ccccc1)NC(=O)[C@@H](NC(=O)CNC(=O)[C@H](CCC(=O)O)NC(=O)C(C)(C)NC(=O)[C@@H](N)Cc1ccc(O)cc1)[C@@H](C)O)C(=O)N[C@@H](CO)C(=O)N[C@@H](CC(=O)O)C(=O)N[C@@H](Cc1ccc(O)cc1)C(=O)N[C@@H](CO)C(=O)N[C@H](C(=O)N[C@@](C)(CC(C)C)C(=O)N[C@@H](CC(C)C)C(=O)N[C@@H](CC(=O)O)C(=O)N[C@@H](CCCCN)C(=O)N[C@@H](CCCCNC(=O)COCCOCCNC(=O)COCCOCCNC(=O)CC[C@H](NC(=O)CCCCCCCCCCCCCCCCCCC(=O)O)C(=O)O)C(=O)N[C@@H](Cc1c[nH]cn1)C(=O)N[C@@H](CCC(N)=O)C(=O)NC(C)(C)C(=O)N[C@@H](CC(=O)O)C(=O)N[C@@H](Cc1ccccc1)C(=O)N[C@H](C(=O)N[C@@H](CCC(=O)O)C(=O)N[C@@H](Cc1ccncc1)C(=O)N[C@@H](CC(C)C)C(=O)N[C@@H](CC(C)C)C(=O)N[C@@H](C)C(=O)N[C@@H](CCC(N)=O)C(=O)NCC(=O)N1CCC[C@H]1C(=O)N[C@@H](CO)C(=O)N[C@@H](CO)C(=O)NCC(=O)N[C@@H](C)C(=O)N1CCC[C@H]1C(=O)N1CCC[C@H]1C(=O)N1CCC[C@H]1C(=O)N[C@@H](CO)C(N)=O)C(C)C)[C@@H](C)CC [Example 79] (H-Y[Aib]EGTFISDYSI[αMeL]LDKK([AEEA-AEEA-γGlu-C20 diacid])HQ[Aib]DFVE[4Pal]LLAQGPSSGAPPPS-NH2)
- Ki: 486 nM

SMILES: CC[C@H](C)[C@H](NC(=O)[C@H](CCCN)NC(=O)[C@H](CC(=O)O)NC(=O)[C@H](CC(C)C)NC(=O)[C@](C)(CC(C)C)NC(=O)[C@@H](NC(=O)[C@H](CO)NC(=O)[C@H](Cc1ccc(O)cc1)NC(=O)[C@H](CC(=O)O)NC(=O)[C@H](CO)NC(=O)[C@@H](NC(=O)[C@H](Cc1ccccc1)NC(=O)[C@@H](NC(=O)CNC(=O)[C@H](CCC(=O)O)NC(=O)C(C)(C)NC(=O)[C@@H](N)Cc1ccc(O)cc1)[C@@H](C)O)[C@@H](C)CC)[C@@H](C)CC)C(=O)N[C@@H](Cc1c[nH]cn1)C(=O)N[C@@H](CCC(N)=O)C(=O)NC(C)(C)C(=O)N[C@@H](CC(=O)O)C(=O)N[C@@H](Cc1ccccc1)C(=O)N[C@H](C(=O)N[C@H](CCC(=O)O)C(=O)N[C@@H](Cc1ccc(O)cc1)C(=O)N[C@@H](CCCCNC(=O)COCCOCCNC(=O)COCCOCCNC(=O)CC[C@H](NC(=O)CCCCCCCCCCCCCCCCCCC(=O)O)C(=O)O)C(=O)N[C@@H](CC(C)C)C(=O)N[C@@H](CCC(=O)O)C(=O)NCC(=O)NCC(=O)N1CCC[C@H]1C(=O)N[C@@H](CO)C(=O)N[C@@H](CO)C(=O)NCC(=O)N[C@@H](C)C(=O)N1CCC[C@H]1C(=O)N1CCC[C@H]1C(=O)N1CCC[C@H]1C(=O)N[C@@H](CO)C(N)=O)C(C)C [Example 101]
- Ki: > 913 nM

SMILES: CC[C@H](C)[C@H](NC(=O)[C@H](CO)NC(=O)[C@H](Cc1ccc(O)cc1)NC(=O)[C@H](CC(=O)O)NC(=O)[C@H](CO)NC(=O)[C@@H](NC(=O)[C@H](Cc1ccccc1)NC(=O)[C@@H](NC(=O)CNC(=O)[C@H](CCC(=O)O)NC(=O)[C@@H](C)NC(=O)[C@@H](N)Cc1ccc(O)cc1)[C@@H](C)O)[C@@H](C)CC)C(=O)N[C@@H](CC(C)C)C(=O)N[C@@H](CC(C)C)C(=O)N[C@@H](CC(=O)O)C(=O)N[C@@H](CCCCN)C(=O)N[C@@H](CCCCNC(=O)COCCOCCNC(=O)COCCOCCNC(=O)CC[C@H](NC(=O)CCCCCCCCCCCCCCCCC(=O)O)C(=O)O)C(=O)N[C@@H](C)C(=O)N[C@@H](CCC(N)=O)C(=O)NC(C)(C)C(=O)N[C@@H](CCC(=O)O)C(=O)N[C@@H](Cc1ccccc1)C(=O)N[C@H](C(=O)N[C@@H](CCC(N)=O)C(=O)N[C@@H](Cc1c[nH]c2ccccc12)C(=O)N[C@@H](CC(C)C)C(=O)N[C@@H](CC(C)C)C(=O)N[C@@H](C)C(=O)NCC(=O)NCC(=O)N1CCC[C@H]1C(=O)N[C@@H](CO)C(=O)N[C@@H](CO)C(=O)NCC(=O)N[C@@H](C)C(=O)N1CCC[C@H]1C(=O)N1CCC[C@H]1C(=O)N1CCC[C@H]1C(=O)N[C@@H](CO)C(N)=O)C(C)C [Example 27] (H-Y[dA]EGTFISDYSILLDKK([AEEA-AEEA-γGlu-C18 diacid])AQ[Aib]EFVQWLLAGGPSSGAPPPS-NH2)
- Ki: 23.2 nM
